This note sets out measurements from patent publication EP2394998A1, “3-(5-Amino-6-oxo-1,6-dihydropyridazin-3-yl)-biphenyl derivatives as PDE4 inhibitors” (Almirall, S.A., priority 2010, dated 2011).

For this test, the target named is recombinant PDE4 enzyme. As to the kind of experiment: PDE4 assay: [3H] cAMP Scintillation Proximity Assay (SPA) of phosphodiesterase activity. It is filed as biochemical. As to conditions: yeast extract of recombinant PDE4 enzyme; 30 nM [3H] cAMP; 1 h at room temperature; pH 7.5. Here is the method: Measurement of Phosphodiesterase Activity was done using a [3H] cAMP Scintillation Proximity Assay (SPA) (GE Healthcare). Compounds to be tested were disolved in dimethylsulfoxide (DMSO) at a stock concentration of 1 mM and serial dilutions were prepared in 50% DMSO to determine IC50s.
The reactions were conducted in 96-well plates (Corning, Ref.3604) at room temperature, in 0.1 mL of reaction buffer containing (final concentrations): 50 mM Tris-HCl, pH 7.5, 8.3 mM MgCl2, 1.7 mM EGTA, 30 nM [3H] cAMP (approximately 150000 dpm/well) with or without the inhibitors. The reaction was initiated by adding yeast extract of recombinant PDE4 enzyme.
Plates were shaken for 1 h at room temperature and the incubation was terminated by adding 50 µL (0.5 mg /well) of SPA ytrium silicate beads (RPNQ 0150; GE Healthcare) in the presence of zinc sulfate. Plates were stored overnight in the dark and read on a TRILUX microtiter plate reader (Perkin Elmer).
What is called IC50 is the midpoint of a concentration-inhibition curve. Consider `CCn1nc(-c2cccc(-c3ccc(C(=O)O)cc3)c2)cc(Nc2cncc3ccccc23)c1=O` [Example 5, 3'-[1-ethyl-5-(isoquinolin-4-ylamino)-6-oxo-1,6-dihydropyridazin-3-yl]biphenyl-4-carboxylic acid], for which the IC50 turned out to be 445 pM. Regarding `CCn1nc(-c2cccc(-c3cccc(C(N)=O)c3)c2)cc(Nc2cccc3c2ccc[n+]3[O-])c1=O` [Example 7, 3'-{1-ethyl-5-[(1-oxidoquinolin-5-yl)amino]-6-oxo-1,6-dihydropyridazin-3-yl}biphenyl-3-carboxamide], the IC50 was 16 pM.

In the case of `CCn1nc(-c2cccc(-c3cccc(C(=O)NCCN(C)C)c3)c2)cc(Nc2cccc3ncccc23)c1=O` [Example 12, N-[2-(dimethylamino)ethyl]-3'-[1-ethyl-6-oxo-5-(quinolin-5-ylamino)-1,6-dihydropyridazin-3-yl]biphenyl-3-carboxamide], the IC50 worked out at 125 pM.

On to `CCn1nc(-c2cccc(-c3cccc(C(=O)NC4CC4)c3)c2)cc(Nc2cccc3ncccc23)c1=O` [Example 13, N-cyclopropyl-3'-[1-ethyl-6-oxo-5-(quinolin-5-ylamino)-1,6-dihydropyridazin-3-yl]biphenyl-3-carboxamide], for which the IC50 was 37 pM. For `CCn1nc(-c2cccc(-c3cccc(C(=O)NCCN4CCOCC4)c3)c2)cc(Nc2cccc3ncccc23)c1=O` [Example 15, 3'-[1-ethyl-6-oxo-5-(quinolin-5-ylamino)-1,6-dihydropyridazin-3-yl]-N-(2-morpholin-4-ylethyl)biphenyl-3-carboxamide], the IC50 came out at 19 pM. Regarding `CCn1nc(-c2cccc(-c3cccc(C(=O)NCCN4CCCCC4)c3)c2)cc(Nc2cccc3ncccc23)c1=O` [Example 16, 3'-[1-ethyl-6-oxo-5-(quinolin-5-ylamino)-1,6-dihydropyridazin-3-yl]-N-(2-piperidin-1-ylethyl)biphenyl-3-carboxamide], the IC50 stood at 45 pM. As to `CCn1nc(-c2cccc(-c3cccc(C(=O)NCCN4CCOCC4)c3)c2)cc(Nc2cncc3ccccc23)c1=O` [Example 17, 3'-[1-ethyl-5-(isoquinolin-4-ylamino)-6-oxo-1,6-dihydropyridazin-3-yl]-N-(2-morpholin-4-ylethyl)biphenyl-3-carboxamide], the 50% inhibitory concentration (IC50) was found to be 43 pM. For the compound `CCn1nc(-c2cccc(-c3cccc(C(=O)NC4CCC4)c3)c2)cc(Nc2cncc3ccccc23)c1=O` [Example 19, N-cyclobutyl-3'-[1-ethyl-5-(isoquinolin-4-ylamino)-6-oxo-1,6-dihydropyridazin-3-yl]biphenyl-3-carboxamide], the IC50 was 223 pM.

As for `CCn1nc(-c2cccc(-c3ccc(C(=O)NCCN4CCCCC4)cc3)c2)cc(Nc2cncc3ccccc23)c1=O` [Example 22, 3'-[1-ethyl-5-(isoquinolin-4-ylamino)-6-oxo-1,6-dihydropyridazin-3-yl]-N-(2-piperidin-1-ylethyl)biphenyl-4-carboxamide], the IC50 was 128 pM. To `CCn1nc(-c2cccc(-c3cccc(C(=O)NC4CCC4)c3)c2)cc(Nc2cccc3ncccc23)c1=O` [Example 25, N-cyclobutyl-3'-[1-ethyl-6-oxo-5-(quinolin-5-ylamino)-1,6-dihydropyridazin-3-yl]biphenyl-3-carboxamide] belongs 209 pM; to `CCn1nc(-c2cccc(-c3cccc(C(=O)NC4CCCC4)c3)c2)cc(Nc2cccc3ncccc23)c1=O` [Example 27, N-cyclopentyl-3'-[1-ethyl-6-oxo-5-(quinolin-5-ylamino)-1,6-dihydropyridazin-3-yl]biphenyl-3-carboxamide], 16 pM. Consider `CCn1nc(-c2cccc(-c3cccc(C(=O)NCCCCCCCN(C)CCO)c3)c2)cc(Nc2cccc3ncccc23)c1=O` [Example 29, 3'-[1-ethyl-6-oxo-5-(quinolin-5-ylamino)-1,6-dihydropyridazin-3-yl]-N-{7-[(2-hydroxyethyl)(methyl)amino]heptyl}biphenyl-3-carboxamide], for which the IC50 is 25 pM.

`CCn1nc(-c2cccc(-c3cccc(C(=O)NC4CCN(C)CC4)c3)c2)cc(Nc2cncc3ccccc23)c1=O` [Example 36, 3'-[1-ethyl-5-(isoquinolin-4-ylamino)-6-oxo-1,6-dihydropyridazin-3-yl]-N-(1-methylpiperidin-4-yl)biphenyl-3-carboxamide]: the half-inhibitory concentration (IC50) came out at 172 pM.

As for `CCn1nc(-c2cccc(-c3cccc(CCC(=O)NC4CC4)c3)c2)cc(Nc2cccc3ncccc23)c1=O` [Example 38, N-cyclopropyl-3-{3'-[1-ethyl-6-oxo-5-(quinolin-5-ylamino)-1,6-dihydropyridazin-3-yl]biphenyl-3-yl}propanamide], the IC50 stood at 101 pM. The figure for `CCn1nc(-c2cccc(-c3cccc(C(=O)NCC(N)=O)c3)c2)cc(Nc2cccc3ncccc23)c1=O` [Example 48, N-(2-Amino-2-oxoethyl)-3'-(1-ethyl-6-oxo-5-(quinolin-5-ylamino)-1,6-dihydropyridazin-3-yl)biphenyl-3-carboxamide] is 41 pM. The figure for `CCn1nc(-c2cccc(-c3cccc(C(=O)NCC(=O)O)c3)c2)cc(Nc2cccc3ncccc23)c1=O` [Example 49, N-({3'-[1-ethyl-6-oxo-5-(quinolin-5-ylamino)-1,6-dihydropyridazin-3-yl]biphenyl-3-yl}carbonyl)glycine] is 42 pM. On to `CCn1nc(-c2cccc(-c3ccc(CC(=O)NCCN4CCCCC4)cc3)c2)cc(Nc2cccc3ncccc23)c1=O` [Example 54, 2-{3'-[1-ethyl-6-oxo-5-(quinolin-5-ylamino)-1,6-dihydropyridazin-3-yl]biphenyl-4-yl}-N-(2-piperidin-1-ylethyl)acetamide], for which the IC50 came out at 90 pM.

`CCn1nc(-c2cccc(-c3cc(C(=O)NCCCN4CCC[C@H]4COC)cc(C(=O)NC4CC4)c3)c2)cc(Nc2cccc3ncccc23)c1=O` [Example 62, N-cyclopropyl-3'-[1-ethyl-6-oxo-5-(quinolin-5-ylamino)-1,6-dihydropyridazin-3-yl]-N'-{3-[(2S)-2-(methoxymethyl)pyrrolidin-1-yl]propyl}biphenyl-3,5-dicarboxamide]: the IC50 was determined as 23 pM. On to `CCn1nc(-c2cccc(-c3cc(C(=O)NCCN4CCC[C@H]4COC)cc(C(=O)NC4CC4)c3)c2)cc(Nc2cccc3ncccc23)c1=O` [Example 63, N-cyclopropyl-3'-[1-ethyl-6-oxo-5-(quinolin-5-ylamino)-1,6-dihydropyridazin-3-yl]-N'-{2-[(2S)-2-(methoxymethyl)pyrrolidin-1-yl]ethyl}biphenyl-3,5-dicarboxamide], for which the IC50 is 37 pM.
